Test results as given in the NIST ThermoML archive (doi:10.1016/j.tca.2006.05.010).
± gives the expanded uncertainty stated by the source.

What was measured:
[1] = refractive index (Na D-line) (dimensionless); details: 101.33 kPa, Liquid, Standard Abbe refractometry
[2] = molar heat capacity at constant pressure; details: 101.33 kPa, Liquid, Small sample (50 mg) DSC
[3] = 101.33 kPa, Liquid, Vibrating tube method
[4] = molar heat capacity at constant pressure; xn = mol fraction of the nth substance listed; details: 308.15 K, 101 kPa, Liquid, Small sample (50 mg) DSC
[5] = excess molar enthalpy (molar enthalpy of mixing); xn = mol fraction of the nth substance listed; details: 308.15 K, 101 kPa, Liquid, Flow calorimetry

COCCOC [1,2-dimethoxyethane]
Details	mass density, [3] [kg/m3]	molar heat capacity at constant pressure, [2] [J/K/mol]	refractive index, [1]
288.15 K	–	188.7 ± 2.9	–
293.15 K	–	189 ± 2.9	–
298.15 K	861.9 ± 0.24	191 ± 3	1.3781 ± 0.0004
303.15 K	–	192.2 ± 3	–
308.15 K	851.28 ± 0.24	193.4 ± 3	1.3726 ± 0.0004
313.15 K	–	194.5 ± 3	–
318.15 K	–	195.8 ± 3	–
323.15 K	–	196.9 ± 3.1	–

C1CCOCC1 [tetrahydropyran]
Details	mass density [kg/m3]	molar heat capacity at constant pressure [J/K/mol]	refractive index
[1], 298.15 K	–	–	1.4188 ± 0.0004
[1], 308.15 K	–	–	1.4142 ± 0.0004
[2], 288.15 K	–	143.9 ± 2.2	–
[2], 293.15 K	–	146.3 ± 2.3	–
[2], 298.15 K	–	147.9 ± 2.3	–
[2], 303.15 K	–	149.7 ± 2.3	–
[2], 308.15 K	–	151.7 ± 2.4	–
[2], 313.15 K	–	154.3 ± 2.4	–
[2], 318.15 K	–	156.5 ± 2.4	–
[2], 323.15 K	–	159.1 ± 2.5	–
[2], 328.15 K	–	161.6 ± 2.5	–
[2], 333.15 K	–	164.2 ± 2.5	–
[3], 298.15 K	879.31 ± 0.24	–	–
[3], 308.15 K	868.85 ± 0.24	–	–

C1CCOCC1 [tetrahydropyran] + C[S+](C)[O-]
Details	excess molar enthalpy [kJ/mol]	molar heat capacity at constant pressure [J/K/mol]
[4], x2 = 0.0834	–	152.1 ± 2.4
[4], x2 = 0.1416	–	152.4 ± 2.4
[4], x2 = 0.2619	–	152.8 ± 2.4
[4], x2 = 0.376	–	153.1 ± 2.4
[4], x2 = 0.4572	–	153.5 ± 2.4
[4], x2 = 0.5817	–	153.7 ± 2.4
[4], x2 = 0.6249	–	153.8 ± 2.4
[4], x2 = 0.659	–	153.8 ± 2.4
[4], x2 = 0.7619	–	153.9 ± 2.4
[4], x2 = 0.8405	–	154 ± 2.4
[4], x2 = 0.9268	–	154.2 ± 2.4
[4], x2 = 0.952	–	154.3 ± 2.4
[5], x2 = 0.0543	0.376 ± 0.005	–
[5], x2 = 0.1148	0.67 ± 0.009	–
[5], x2 = 0.1469	0.781 ± 0.01	–
[5], x2 = 0.1867	0.896 ± 0.011	–
[5], x2 = 0.2562	1.02 ± 0.013	–
[5], x2 = 0.3146	1.09 ± 0.014	–
[5], x2 = 0.4079	1.14 ± 0.014	–
[5], x2 = 0.4786	1.17 ± 0.015	–
[5], x2 = 0.5708	1.13 ± 0.014	–
[5], x2 = 0.6739	1.03 ± 0.013	–
[5], x2 = 0.7337	0.946 ± 0.012	–
[5], x2 = 0.8051	0.796 ± 0.01	–
[5], x2 = 0.8464	0.685 ± 0.009	–
[5], x2 = 0.8921	0.508 ± 0.007	–
[5], x2 = 0.9168	0.412 ± 0.006	–
[5], x2 = 0.9429	0.295 ± 0.004	–
[5], x2 = 0.9706	0.157 ± 0.002	–

CCOCCOCC [1,2-diethoxyethane] + C[S+](C)[O-]
Details	excess molar enthalpy [kJ/mol]	molar heat capacity at constant pressure [J/K/mol]
[4], x2 = 0.0627	–	252.8 ± 3.9
[4], x2 = 0.1317	–	246 ± 3.8
[4], x2 = 0.1895	–	240.7 ± 3.7
[4], x2 = 0.35	–	225 ± 3.5
[4], x2 = 0.4563	–	214.4 ± 3.3
[4], x2 = 0.5642	–	203.2 ± 3.1
[4], x2 = 0.635	–	195.8 ± 3
[4], x2 = 0.6718	–	191.9 ± 3
[4], x2 = 0.7514	–	183.1 ± 2.8
[4], x2 = 0.8274	–	174.7 ± 2.7
[4], x2 = 0.8881	–	167.7 ± 2.6
[4], x2 = 0.941	–	161.6 ± 2.5
[5], x2 = 0.0765	0.342 ± 0.005	–
[5], x2 = 0.1421	0.532 ± 0.007	–
[5], x2 = 0.199	0.648 ± 0.008	–
[5], x2 = 0.2488	0.72 ± 0.009	–
[5], x2 = 0.332	0.803 ± 0.01	–
[5], x2 = 0.3986	0.843 ± 0.011	–
[5], x2 = 0.4985	0.893 ± 0.011	–
[5], x2 = 0.5698	0.883 ± 0.011	–
[5], x2 = 0.6653	0.835 ± 0.011	–
[5], x2 = 0.7489	0.726 ± 0.009	–
[5], x2 = 0.799	0.638 ± 0.008	–
[5], x2 = 0.8564	0.502 ± 0.007	–
[5], x2 = 0.8883	0.397 ± 0.005	–
[5], x2 = 0.9227	0.293 ± 0.004	–
[5], x2 = 0.9408	0.245 ± 0.004	–
[5], x2 = 0.9598	0.16 ± 0.002	–
[5], x2 = 0.9795	0.083 ± 0.002	–

COCCOC [1,2-dimethoxyethane] + C[S+](C)[O-]
Details	excess molar enthalpy [kJ/mol]	molar heat capacity at constant pressure [J/K/mol]
[4], x2 = 0.1017	–	188.6 ± 2.9
[4], x2 = 0.1471	–	186.5 ± 2.9
[4], x2 = 0.2718	–	180.8 ± 2.8
[4], x2 = 0.3811	–	175.8 ± 2.7
[4], x2 = 0.4923	–	170.8 ± 2.6
[4], x2 = 0.5507	–	168.3 ± 2.6
[4], x2 = 0.5831	–	166.9 ± 2.6
[4], x2 = 0.677	–	163.1 ± 2.5
[4], x2 = 0.7788	–	159.4 ± 2.5
[4], x2 = 0.8414	–	157.6 ± 2.4
[4], x2 = 0.9315	–	155.5 ± 2.4
[4], x2 = 0.9626	–	155 ± 2.4
[5], x2 = 0.0577	0.077 ± 0.002	–
[5], x2 = 0.1092	0.142 ± 0.002	–
[5], x2 = 0.1553	0.193 ± 0.003	–
[5], x2 = 0.1969	0.231 ± 0.003	–
[5], x2 = 0.2689	0.285 ± 0.004	–
[5], x2 = 0.329	0.326 ± 0.004	–
[5], x2 = 0.4238	0.361 ± 0.005	–
[5], x2 = 0.495	0.366 ± 0.005	–
[5], x2 = 0.5953	0.364 ± 0.005	–
[5], x2 = 0.6882	0.338 ± 0.005	–
[5], x2 = 0.7463	0.316 ± 0.004	–
[5], x2 = 0.8153	0.265 ± 0.004	–
[5], x2 = 0.8547	0.23 ± 0.003	–
[5], x2 = 0.8982	0.182 ± 0.003	–
[5], x2 = 0.9217	0.142 ± 0.002	–
[5], x2 = 0.9464	0.105 ± 0.002	–
[5], x2 = 0.9725	0.057 ± 0.001	–

C1COCCO1 [1,4-dioxane] + C[S+](C)[O-]
Details	excess molar enthalpy [kJ/mol]	molar heat capacity at constant pressure [J/K/mol]
[4], x2 = 0.0749	–	154.8 ± 2.4
[4], x2 = 0.1148	–	155.1 ± 2.4
[4], x2 = 0.2112	–	155.5 ± 2.4
[4], x2 = 0.313	–	155.4 ± 2.4
[4], x2 = 0.4096	–	155.1 ± 2.4
[4], x2 = 0.5185	–	154.6 ± 2.4
[4], x2 = 0.6108	–	153.9 ± 2.4
[4], x2 = 0.6637	–	153.5 ± 2.4
[4], x2 = 0.7064	–	153.2 ± 2.4
[4], x2 = 0.8128	–	152.5 ± 2.4
[4], x2 = 0.8952	–	152.7 ± 2.4
[4], x2 = 0.9586	–	153.5 ± 2.4
[5], x2 = 0.0478	0.133 ± 0.002	–
[5], x2 = 0.0911	0.222 ± 0.003	–
[5], x2 = 0.1308	0.281 ± 0.004	–
[5], x2 = 0.1671	0.32 ± 0.004	–
[5], x2 = 0.2313	0.365 ± 0.005	–
[5], x2 = 0.2863	0.386 ± 0.005	–
[5], x2 = 0.3757	0.409 ± 0.005	–
[5], x2 = 0.4451	0.417 ± 0.006	–
[5], x2 = 0.5462	0.404 ± 0.005	–
[5], x2 = 0.6437	0.383 ± 0.005	–
[5], x2 = 0.7066	0.356 ± 0.005	–
[5], x2 = 0.7831	0.31 ± 0.004	–
[5], x2 = 0.828	0.272 ± 0.004	–
[5], x2 = 0.8784	0.207 ± 0.003	–
[5], x2 = 0.9059	0.167 ± 0.003	–
[5], x2 = 0.9353	0.116 ± 0.002	–
[5], x2 = 0.9665	0.066 ± 0.001	–
